B1: endogenous KITENIN (natural protein, UniProt Q8TAA9 1-524, looked up)
chain: MDTESTYSGYSYYSSHSKKSHRQGERTRERHKSPRNKDGRGSEKSVTIQPPTGEPLLGNDSTRTEEVQDDNWGETTTAITGTSEHSISQEDIARISKDMEDSVGLDCKRYLGLTVASFLGLLVFLTPIAFILLPPILWRDELEPCGTICEGLFISMAFKLLILLIGTWALFFRKRRADMPRVFVFRALLLVLIFLFVVSYWLFYGVRILDSRDRNYQGIVQYAVSLVDALLFIHYLAIVLLELRQLQPMFTLQVVRSTDGESRFYSLGHLSIQRAALVVLENYYKDFTIYNPNLLTASKFRAAKHMAGLKVYNVDGPSNNATGQSRAMIAAAARRRDSSHNELYYEEAEHERRVKKRKARLVVAVEEAFIHIQRLQAEEQQKAPGEVMDPREAAQAIFPSMARALQKYLRITRQQNYHSMESILQHLAFCITNGMTPKAFLERYLSAGPTLQYDKDRWLSTQWRLVSDEAVTNGLRDGIVFVLKCLDFSLVVNVKKIPFIILSEEFIDPKSHKFVLRLQSETSV
notes: KITENIN (Vangl1), endogenous; also called endogenous KITENIN dimer; source: endogenous, HEK293T, HCT116 or Caco2 lysate
B2: V5-tagged KITENIN (natural protein, UniProt Q8TAA9 1-524, looked up)
chain: B1 chain
notes: KITENIN (Vangl1), wild type; also called KITENIN-V5; WT-KITENIN

Experiments:
[1] = Detection of KDIP and truncated forms in tumour and liver tissue by LC-MS/MS (MRM) after intravenous injection; type: in vivo, mouse; conditions: tissues collected 20 min after fifth intravenous injection of KDIP 5 mg/kg, below the limit of detection
Protocol: At 20 min after fifth intravenous injection of KDIP, tumour and liver tissues were collected, immediately frozen using liquid nitrogen and ground with a pestle and mortar. One part of resultant powder by weight was homogenized with two parts of lysis buffer containing 8‐M urea, 25‐mM Tris–HCl (pH 8.5) by volume and was placed in Eppendorf tubes. This lysate was sonicated three times for 2 s with 2‐s intervals of rest at 20% amplitude on ice. Insoluble debris was removed by obtaining supernatant after centrifugation at 14 000 g, 4°C for 15 min.
Peptide extraction from serum or tissue lysate was performed by solid‐phase extraction using Oasis HLB Cartridge 1‐cm^3 (30 mg). HLB cartridges were conditioned using ACN (1 ml) and 50% ACN, .5% FA (1 ml), followed by equilibration using .5% FA (2 ml). A volume of 10‐μl serum and 20 μl of tissue lysate were added by .5% FA to be 1 ml and were loaded on equilibrated cartridges. Cartridges were washed with .5% FA (3 ml), and then peptide was eluted by 50% ACN, .5% FA (500 μl). Eluates were vacuum‐dried using Speed‐Vac and were stored at −80°C until use. Dried samples were reconstituted in .5% FA 50 and 5 μl of sample was loaded on column for LC–MS/MS analysis.
Each sample was analysed using an Agilent 1100 Series high‐performance liquid chromatography pump (Agilent Technologies, USA) coupled to an LTQ linear ion trap mass spectrometer (Thermo Finnigan, USA). Separation of peptide was carried out on a homemade C18‐fused silica column (100‐μm internal diameter) with nano‐electrospray ionization interface. […] Peptide was quantified by multiple reaction monitoring (MRM) in positive ion mode, with a spray voltage of 2.3 kV. […] Furthermore, truncated forms ([…], […]) of KDIP that were detected during stability test were also analysed by following transitions: 468.5 → 404.8 (b16 ^+5), 468.5 → 444.85 (b18 ^+5), 468.5 → 505.7 (b16 ^+4), 468.5 → 551.35 (b18 + H2O^+4), 468.5 → 555.7 (b18 ^+4), 528.45 → 448.85 (b14 ^+4), 528.45 → 499.0 (b16 ^+4), 528.45 → 598.15 (b14 ^+3), 528.45 → 659.25 (b16 + H2O^+3) and 528.45 → 664.95 (b16 ^+3). […]

[2] = molecular target: the molecule itself; test: SDS-PAGE in the reducing/denaturing condition and Western blot; non-transfected HCT116 and Caco2 cells, regular SDS-PAGE gel, dimer-sized band
[3] = molecular target: the molecule itself; test: native gel or EMSA; lysates of Caco2 cells transfected with KITENIN-V5, with or without KDIP, on a native SDS-PAGE gel in the non-reducing/non-denaturing condition; immunoblot with anti-KITENIN antibody

Molecule	detection in regressed tumour tissues or liver by mass spectrometry [1]	further results
ARVRRRGPRRWRLVSDEAV [19‐mer, N-truncated form of KDIP found after incubation with mouse serum]	not detected	–
VRRRGPRRWRLVSDEAV [17‐mer, N-truncated form of KDIP found after incubation with mouse serum]	not detected	–
B1	–	stoichiometry N [2]: 2
B2	–	stoichiometry N [3]: 2
